Target: Serum paraoxonase/arylesterase 1 (Homo sapiens, UniProt P27169)
Experiment: Paraoxonase Activity Assay
Settings: pH 10.5
Protocol: Paraoxonase enzyme activity was determined at 25 °C with paraoxon (1 mM) in 50 mM glycine-NaOH (pH 10.5) containing 1 mM CaCl2. The enzyme assay was based on the estimation of p-nitrophenol at 412 nm. Assays were performed using a spectrophotometer (CHEBIOS UV-VIS, Fullerton, CA). The molar extinction coefficient of paranitrophenol (Ɛ = 18 290/M/cm at pH 10.5) is used for thecalculation of enzyme activity. One enzyme unit was defined as the amount of enzyme that catalyzes the hydrolysis of 1 µmol of paraoxon at 25 °C (J. Chromatogr. B. 2006, 836:15-21).

Sequence of Serum paraoxonase/arylesterase 1 (P27169 whole entry): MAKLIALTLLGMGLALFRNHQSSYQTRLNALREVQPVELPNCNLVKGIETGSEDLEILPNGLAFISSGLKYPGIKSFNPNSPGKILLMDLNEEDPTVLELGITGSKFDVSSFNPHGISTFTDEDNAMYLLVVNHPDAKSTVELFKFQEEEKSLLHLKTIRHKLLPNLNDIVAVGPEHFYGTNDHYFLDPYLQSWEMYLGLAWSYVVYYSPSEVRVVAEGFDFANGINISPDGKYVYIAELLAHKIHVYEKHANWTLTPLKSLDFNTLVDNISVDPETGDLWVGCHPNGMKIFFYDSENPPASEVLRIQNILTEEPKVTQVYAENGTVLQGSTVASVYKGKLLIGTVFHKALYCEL

Compound | IC50 [µM] | Ki [µM]
CC(=O)O[C@H]1C(=O)[C@@]2(C)[C@H]([C@H](OC(=O)c3ccccc3)[C@]3(O)C[C@H](OC(=O)[C@H](O)[C@@H](NC(=O)c4ccccc4)c4ccccc4)C(C)=C1C3(C)C)[C@]1(OC(C)=O)CO[C@@H]1C[C@@H]2O | 42 | 16.5
COc1cc([C@@H]2c3cc4c(cc3[C@@H](O[C@@H]3O[C@@H]5CO[C@@H](C)O[C@H]5[C@H](O)[C@H]3O)[C@H]3COC(=O)[C@H]23)OCO4)cc(OC)c1O [4'-Demethylepipodophyllotoxin 9-(4,6-O-(R)-ethylidene-beta-D-glucopyranoside)] | 226 | 131
CC(=O)O[C@@]12CO[C@@H]1C[C@H](O)[C@@]1(C)C(=O)[C@H](O)C3=C(C)[C@@H](OC(=O)[C@H](O)[C@@H](NC(=O)OC(C)(C)C)c4ccccc4)C[C@@](O)([C@@H](OC(=O)c4ccccc4)[C@H]21)C3(C)C [CID148124] | 665 | 291
O=P1(NCCCl)OCCCN1CCCl (stereo not drawn) [N,3-bis(2-chloroethyl)-2-oxo-1,3,2-oxazaphosphinan-2-amine] | 23300 | 8970

Source: BindingDB's records for doi:10.1111/cbdd.12746 (Ahi Evran University, 2016)
